# Assay results: ChEMBL document CHEMBL1949583, “Credneramides A and B: neuromodulatory phenethylamine and isopentylamine derivatives of a vinyl chloride-containing fatty acid from cf. Trichodesmium sp. nov” (J Nat Prod, 2012)
# Test: Neuromodulatory activity in mouse cerebrocortical neurons assessed as inhibition of calcium oscillation
# Assay type: functional
# Conditions: Cerebral cortex neuron
row,IC50,SMILES
1,4 µM,CCC/C(=C\Cl)C/C=C/CCC(=O)NCCc1ccccc1 [CREDNERAMIDE A]
2,8.2 µM,CCC/C(=C\Cl)C/C=C/CCC(=O)O [CREDNERIC ACID]
3,3.9 µM,CCC/C(=C\Cl)C/C=C/CCC(=O)NCCC(C)C [CREDNERAMIDE B]
